Results: patent US20250312352A1, “GLP-1R MODULATING COMPOUNDS” (Gilead Sciences, Inc., priority 2021, published 2025)

Target: T1, GLP-1R (Homo sapiens, UniProt P43220)
T1 construct: host or cells: CHO cells
Experiment: GLP-1R activation cAMP assay (Assay 1 or Assay 2)
Assay type: cell-based
Details: cAMP increase in CHO cells stably expressing GLP-1R; compounds run on one of the two cAMP assays
Method: GLP-1R ACTIVATION—cAMP Assay 1
GLP-1R activation by compounds of the present disclosure was quantified by measuring cAMP increase in CHO cells stably expressing GLP-1R (MultiSpan product #C1267-1a). The cells were harvested and plated in growth medium (DMEM/F-12 (Corning product #10-090-CV) supplemented with 10% FBS (HyClone product #SH30071-03), penicillin/streptomycin (Corning product #30-002CI) and 10 μg/ml puromycin (Gibco product #A11138-03)) at 1,000 cells/well in a 384-well plate (Greiner product #781080). The cells were then incubated overnight at 37° C., 5% CO2. The next day, the medium was removed and the cells were washed with DPBS (Corning product #21-031-CM) before adding the assay medium (HBSS, Corning product #21-023-CV) with 20 mM Hepes (Gibco product #15630-080) and 0.1% BSA (Rockland Immunochemicals product #BSA-1000)). Following the medium change, the cells were incubated for 1 hour at 37° C., 5% CO2. The tested GLP-1 compound was added to the cells in a 10-point dose response followed by a 30-minute incubation at 37° C., 5% CO2. cAMP concentration increase was then detected using Cisbio's cAMP Gs Dynamic Kit (product #62AM4PEC) according to the manufacturer's protocol. The response was plotted against the log of the agonist concentration and fitted to a sigmoidal equation to determine the EC50.
GLP-1R ACTIVATION—cAMP Assay 2
GLP-1R activation by small molecule agonists was quantified by measuring cAMP increase in CHO cells stably expressing GLP-1R (MultiSpan product #C1267-1a). 50 nL of agonists were pre-spotted in a 10-point dose response onto 384-well plate (Corning product #CL3826) using the Labcyte Echo System.

T1 sequence (P43220 24-463): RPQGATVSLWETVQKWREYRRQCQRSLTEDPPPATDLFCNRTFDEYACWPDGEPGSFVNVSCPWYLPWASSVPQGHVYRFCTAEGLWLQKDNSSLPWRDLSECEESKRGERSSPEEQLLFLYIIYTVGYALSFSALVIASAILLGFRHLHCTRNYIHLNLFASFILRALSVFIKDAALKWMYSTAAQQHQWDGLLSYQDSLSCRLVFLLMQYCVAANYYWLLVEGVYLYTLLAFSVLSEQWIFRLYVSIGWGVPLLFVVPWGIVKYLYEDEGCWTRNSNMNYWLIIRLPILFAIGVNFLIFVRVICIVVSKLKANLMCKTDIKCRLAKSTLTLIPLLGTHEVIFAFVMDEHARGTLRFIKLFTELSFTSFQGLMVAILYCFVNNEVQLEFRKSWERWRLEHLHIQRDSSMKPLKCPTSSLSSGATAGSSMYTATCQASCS

Compound | EC50 [pM]
Cn1cc(-c2cc(F)c(COc3cccc(-c4cc(F)c(Cc5nc6ccc(C(=O)O)cc6n5C[C@@H]5CCO5)cc4F)n3)s2)cn1 [Example 86, (S)-2-(2,5-difluoro-4-(6-((3-fluoro-5-(1-methyl-1H-pyrazol-4-yl)thiophen-2-yl)methoxy)pyridin-2-yl)benzyl)-1-(oxetan-2-ylmethyl)-1H-benzo[d]imidazole-6-carboxylic acid] | 140
COc1ncc(C#Cc2cnc(COc3cccc(-c4cc(F)c(Cc5nc6ccc(C(=O)O)cc6n5C[C@@H]5CCO5)cc4F)n3)c(F)c2)s1 [Example 294, (S)-2-(2,5-difluoro-4-(6-((3-fluoro-5-((2-methoxythiazol-5-yl)ethynyl)pyridin-2-yl)methoxy)pyridin-2-yl)benzyl)-1-(oxetan-2-ylmethyl)-1H-benzo[d]imidazole-6-carboxylic acid] | 182
COCCn1c(Cc2cc(F)c(-c3cccc(OCc4ccc(-c5cnn(C6CCOCC6)c5)cc4F)n3)cc2F)nc2ccc(C(=O)O)cc21 [Example 226, 2-(2,5-difluoro-4-(6-((2-fluoro-4-(1-(tetrahydro-2H-pyran-4-yl)-1H-pyrazol-4-yl)benzyl)oxy)pyridin-2-yl)benzyl)-1-(2-methoxyethyl)-1H-benzo[d]imidazole-6-carboxylic acid] | 8360
Cn1cc(C#Cc2ccc(COc3cccc(-c4cc(F)c(Cc5nc6ccc(C(=O)O)cc6n5C[C@@H]5CCO5)cc4F)n3)nc2Cl)cn1 [Example 358, (S)-2-(4-(6-((6-chloro-5-((1-methyl-1H-pyrazol-4-yl)ethynyl)pyridin-2-yl)methoxy)pyridin-2-yl)-2,5-difluorobenzyl)-1-(oxetan-2-ylmethyl)-1H-benzo[d]imidazole-6-carboxylic acid] | 243
NC(=O)c1cnc(COc2cccc(-c3cc(F)c(Cc4nc5ccc(C(=O)O)cc5n4C[C@@H]4CCO4)cc3F)n2)s1 [Example 3, (S)-2-(4-(6-((5-carbamoylthiazol-2-yl)methoxy)pyridin-2-yl)-2,5-difluorobenzyl)-1-(oxetan-2-ylmethyl)-1H-benzo[d]imidazole-6-carboxylic acid] | 3150
O=C(O)c1ccc2nc(Cc3cc(F)c(-c4cccc(OCc5ncc(-c6cnccn6)s5)n4)cc3F)n(C[C@@H]3CCO3)c2c1 [Example 106, (S)-2-(2,5-difluoro-4-(6-((5-(pyrazin-2-yl)thiazol-2-yl)methoxy)pyridin-2-yl)benzyl)-1-(oxetan-2-ylmethyl)-1H-benzo[d]imidazole-6-carboxylic acid] | 140
O=C(O)c1ccc2nc(Cc3cc(F)c(-c4cccc(OCc5nnc(C(F)(F)F)s5)n4)cc3F)n(C[C@@H]3CCO3)c2c1 [Example 25, (S)-2-(2,5-difluoro-4-(6-((5-(trifluoromethyl)-1,3,4-thiadiazol-2-yl)methoxy)pyridin-2-yl)benzyl)-1-(oxetan-2-ylmethyl)-1H-benzo[d]imidazole-6-carboxylic acid] | 530
O=C(O)c1ccc2nc(Cc3cc(F)c(-c4cccc(OCc5nnc(C6CC(F)(F)C6)s5)n4)cc3F)n(C[C@@H]3CCO3)c2c1 [Example 385, (S)-2-(4-(6-((5-(3,3-difluorocyclobutyl)-1,3,4-thiadiazol-2-yl)methoxy)pyridin-2-yl)-2,5-difluorobenzyl)-1-(oxetan-2-ylmethyl)-1H-benzo[d]imidazole-6-carboxylic acid] | 110
N#CCNC(=O)c1ccc(COc2cccc(-c3cc(F)c(Cc4nc5ccc(C(=O)O)cc5n4C[C@@H]4CCO4)cc3F)n2)cn1 [Example 175, (S)-2-(4-(6-((6-((cyanomethyl)carbamoyl)pyridin-3-yl)methoxy)pyridin-2-yl)-2,5-difluorobenzyl)-1-(oxetan-2-ylmethyl)-1H-benzo[d]imidazole-6-carboxylic acid] | 110
(S)-1-(oxetan-2-ylmethyl)-2-(2,3,6-trifluoro-4-(6-((4-(trifluoromethyl)thiazol-2-yl)methoxy)pyridin-2-yl)benzyl)-1H-benzo[d]imidazole-6-carboxylic acid [Example 376] | 153
O=C(O)c1ccc2nc(Cc3cc(F)c(-c4cccc(OCc5nnc(OCC(F)(F)F)s5)n4)cc3F)n(C[C@@H]3CCO3)c2c1 [Example 350, (S)-2-(2,5-difluoro-4-(6-((5-(2,2,2-trifluoroethoxy)-1,3,4-thiadiazol-2-yl)methoxy)pyridin-2-yl)benzyl)-1-(oxetan-2-ylmethyl)-1H-benzo[d]imidazole-6-carboxylic acid] | 209

Continued by falling EC50, values first:

EC50 [pM] | Compound
5570 | NC(=O)c1sc(COc2cccc(-c3cc(F)c(Cc4nc5ccc(C(=O)O)cc5n4C[C@@H]4CCO4)cc3F)n2)cc1F [Example 204, 2-[[4-[6-[(5-carbamoyl-4-fluoro-2-thienyl)methoxy]-2-pyridyl]-2,5-difluoro-phenyl]methyl]-3-[[(2S)-oxetan-2-yl]methyl]benzimidazole-5-carboxylic acid]
460 | Cn1nc(COc2cccc(-c3cc(F)c(Cc4nc5ccc(C(=O)O)cc5n4C[C@@H]4CCO4)cc3F)n2)cc1C#N [Example 207, (S)-2-(4-(6-((5-cyano-1-methyl-1H-pyrazol-3-yl)methoxy)pyridin-2-yl)-2,5-difluorobenzyl)-1-(oxetan-2-ylmethyl)-1H-benzo[d]imidazole-6-carboxylic acid]
400 | O=C(O)c1ccc2nc(Cc3cc(F)c(-c4cccc(OCc5ccc(C#Cc6ccncc6)cc5F)n4)cc3F)n(C[C@@H]3CCO3)c2c1 [Example 140, (S)-2-(2,5-difluoro-4-(6-((2-fluoro-4-(pyridin-4-ylethynyl)benzyl)oxy)pyridin-2-yl)benzyl)-1-(oxetan-2-ylmethyl)-1H-benzo[d]imidazole-6-carboxylic acid]
381 | Cc1cnc(COc2cccc(-c3cc(F)c(Cc4nc5ccc(C(=O)O)cc5n4C[C@@H]4CCO4)cc3F)n2)s1 [Example 327, (S)-2-(2,5-difluoro-4-(6-((5-methylthiazol-2-yl)methoxy)pyridin-2-yl)benzyl)-1-(oxetan-2-ylmethyl)-1H-benzo[d]imidazole-6-carboxylic acid]
366 | CC1(C)COC[C@H]1n1c(Cc2cc(F)c(-c3ccc(F)c(OCc4ncc(Cl)s4)n3)cc2F)nc2ccc(C(=O)O)cc21 [Example 255, (S)-2-(4-(6-((5-chlorothiazol-2-yl)methoxy)-5-fluoropyridin-2-yl)-2,5-difluorobenzyl)-1-(4,4-dimethyltetrahydrofuran-3-yl)-1H-benzo[d]imidazole-6-carboxylic acid]
318 | CC1(C)COC[C@H]1n1c(Cc2cc(F)c(-c3cccc(OCc4ncc(C(F)(F)F)s4)n3)cc2F)nc2ccc(C(=O)O)cc21 [Example 414, (S)-2-(2,5-difluoro-4-(6-((5-(trifluoromethyl)thiazol-2-yl)methoxy)pyridin-2-yl)benzyl)-1-(4,4-dimethyltetrahydrofuran-3-yl)-1H-benzo[d]imidazole-6-carboxylic acid]
180 | O=C(O)c1ccc2nc(Cc3cc(F)c(-c4cccc(OCc5ncc(-c6cccnc6)s5)n4)cc3F)n(C[C@@H]3CCO3)c2c1 [Example 108, (S)-2-(2,5-difluoro-4-(6-((5-(pyridin-3-yl)thiazol-2-yl)methoxy)pyridin-2-yl)benzyl)-1-(oxetan-2-ylmethyl)-1H-benzo[d]imidazole-6-carboxylic acid]
164 | CNC(=O)c1cc(Cl)c(COc2cccc(-c3cc(F)c(Cc4nc5c(F)cc(C(=O)O)cc5n4[C@@H]4COCC4(C)C)cc3F)n2)cn1 [Example 365, (S)-2-(4-(6-((4-chloro-6-(methylcarbamoyl)pyridin-3-yl)methoxy)pyridin-2-yl)-2,5-difluorobenzyl)-1-(4,4-dimethyltetrahydrofuran-3-yl)-4-fluoro-1H-benzo[d]imidazole-6-carboxylic acid]
100 | O=C(O)c1ccc2nc(Cc3cc(F)c(-c4cccc(OCc5ccc(-n6cc(C7CC7)nn6)nc5)n4)cc3F)n(C[C@@H]3CCO3)c2c1 [Example 212, (S)-2-(4-(6-((6-(4-cyclopropyl-1H-1,2,3-triazol-1-yl)pyridin-3-yl)methoxy)pyridin-2-yl)-2,5-difluorobenzyl)-1-(oxetan-2-ylmethyl)-1H-benzo[d]imidazole-6-carboxylic acid]
78 | O=C(O)c1cc(F)c2nc(Cc3cc(F)c(-c4cccc(OCc5ncc(C#CC6(CF)CC6)cc5Cl)n4)cc3F)n(C[C@@H]3CCO3)c2c1 [Example 380, (S)-2-(4-(6-((3-chloro-5-((1-(fluoromethyl)cyclopropyl)ethynyl)pyridin-2-yl)methoxy)pyridin-2-yl)-2,5-difluorobenzyl)-4-fluoro-1-(oxetan-2-ylmethyl)-1H-benzo[d]imidazole-6-carboxylic acid]
27 | CCOc1nnc(COc2nc(-c3cc(F)c(Cc4nc5ccc(C(=O)O)cc5n4[C@@H]4COCC4(C)C)cc3F)ccc2F)s1 [Example 424, (S)-1-(4,4-dimethyltetrahydrofuran-3-yl)-2-(4-(6-((5-ethoxy-1,3,4-thiadiazol-2-yl)methoxy)-5-fluoropyridin-2-yl)-2,5-difluorobenzyl)-1H-benzo[d]imidazole-6-carboxylic acid]
